# In patent US20220015363A1, “SMALL MOLECULE PATHOGEN DISPERSAL AGENT” (The Trustees of Princeton University, priority 2020, published 2022):
# Columns and labels:
# P. aeruginosa = assay: orientation of surface attachment (vertical vs horizontal) of cells; type: cell-based; settings: 10 mM MHQ; ntotal=1331; PBS control 76%
# Method: Upon treatment with phosphate buffered saline (PBS), 76% (ntotal=1347) of the cells attached to the surface vertically. In contrast, upon treatment with, e.g., 10 mM MHQ, only 5% (ntotal=1331) of the cells attached to the surface vertically. A similar behavior is found between MHQ-treated WT cells and mutants lacking Type IV pilin subunits (PilA), as only 7% (ntotal=1995) of ΔpilA cells were attached vertically even in PBS treatment.
# [1] = tested on: type IV pili (T4P) twitching motility; assay: twitching assay (spread under agar, crystal violet staining); type: cell-based, P. aeruginosa
# Excerpt: Since T4P is required for twitching motility, the dispersing compound's effect on a pathogen can be seen in a twitching assay. In this assay, cells are placed underneath agar and allowed to spread from their starting spot along the bottom surface of a Petri dish. The extent of this spread is visualized with crystal violet staining and quantified. In the presence of agar made with LB, WT cells traveled 11±0.7 mm (mean±SD) from the starting spot. […] The effect of MHQ on twitching depended on T4P, as ΔpilA cells that lack T4P traveled similar distances away from the starting spot in the absence of MHQ (1.9±0.1 mm) or in the presence of MHQ (2.3±0.3 mm).
# T4P activity = assay: T4P dynamics imaging by cysteine-labeling of PilA; type: cell-based, P. aeruginosa; settings: 2 mM MHQ for 5 min; n=493; PBS control 77%
# Method: To directly assay the effect of a dispersing compound on T4P activity, the recently developed cysteine-labeling approach can be used to fluorescently label T4P and image their dynamics. This approach uses a cysteine point mutation in an unstructured loop of the PilA pilin subunit to label the pili through maleimide-based click chemistry. In one experiment, the pili of untreated cells were labeled and then imaged T4P dynamics after a brief (5 min) exposure to MHQ or PBS control. Following a 5 min mock treatment with PBS, T4P were seen extending and retracting from 77% of the cells (n=473). […] Since the T4P was labeled before MHQ treatment and the treatment was brief, this effect cannot be attributed to effects of MHQ on TFP expression or labeling. Similar results can be seen with other disclosed dispersing compounds.
smiles,measurement,setting,value
"Cc1cc(O)c2ccccc2n1 [MHQ, 2-methyl-4-hydroxyquinoline]",cells attached to the surface vertically,P. aeruginosa,5%
same,distance traveled from the starting spot,"[1]; WT cells, agar made with LB and 2 mM MHQ, mean±SD, LB alone 11±0.7 mm",7±0.5 mm
same,distance traveled from the starting spot,"[1]; ΔpilA cells that lack T4P, in the presence of MHQ, without MHQ 1.9±0.1 mm",2.3±0.3 mm
same,cells exhibiting any T4P extension or retraction events,T4P activity,4%
